In ChEMBL document CHEMBL4219208, “5'-Hydroxy-5'-homoaristeromycin: Synthesis and antiviral properties” (Bioorg Med Chem Lett, 2018):
pEC50: −log10 of the molar value. Calls of active or inactive are those of the source. No cut-off for these calls is given here.

Columns and labels:
Hepatitis B virus = experiment: Antiviral activity against Hepatitis B virus ayw infected in human HepG2.2.15 cells; format: functional, organism-based, Hepatitis B virus subtype ayw
[1] = Cytotoxicity against human HepG2.2.15 cells assessed as reduction in cell viability; format: cell-based, HepG2 2.2.15
Poliovirus 1 = experiment: Antiviral activity against Polio virus type 1 infected in monkey LLC-MK2 clone 7.1 cells; format: functional, organism-based
Yellow fever virus = experiment: Antiviral activity against Yellow fever virus 17D infected in African green monkey Vero cells; format: functional, organism-based
LLC-MK2 = experiment: Cytotoxicity against monkey LLC-MK2 clone 7.1 cells assessed as reduction in cell viability; format: cell-based, Macaca mulatta; conditions: rhesus monkey
SARS-CoV = experiment: Antiviral activity against SARS coronavirus Toronto-2 infected in African green monkey Vero E6 cells; format: functional, organism-based; conditions: Severe acute respiratory syndrome-related coronavirus, Vero C1008
Vero C1008 = experiment: Cytotoxicity against African green monkey Vero E6 cells assessed as reduction in cell viability; format: cell-based; conditions: chlorocebus sabaeus
Human orthopneumovirus = experiment: Antiviral activity against Respiratory syncytial virus A infected in human Hep2 cells; format: functional, organism-based; conditions: type A
HEp-2 = experiment: Cytotoxicity against human Hep2 cells assessed as reduction in cell viability; format: cell-based
Hepatitis C virus = experiment: Antiviral activity against Hepatitis C virus Con1 infected in human Huh-Luc-Neo cells; format: functional, organism-based; conditions: Hepacivirus hominis; isolate Con1
[2] = Cytotoxicity against human Huh-Luc-Neo cells assessed as reduction in cell viability; format: cell-based
Human alphaherpesvirus 1 = experiment: Antiviral activity against Herpes simplex virus 1 E-377 infected in HFF; format: functional, organism-based
Human alphaherpesvirus 2 = experiment: Antiviral activity against Herpes simplex virus 2 G infected in HFF; format: functional, organism-based
Vaccinia virus = experiment: Antiviral activity against Vaccinia virus Copenhagen infected in HFF cells; format: functional, organism-based; conditions: Orthopoxvirus vaccinia
dengue virus type 2 = experiment: Antiviral activity against Dengue virus type 2 New guinea infected in African green monkey Vero 76 cells; format: functional, organism-based
Vero 76 = experiment: Cytotoxicity against African green monkey Vero 76 cells assessed as reduction in cell viability; format: cell-based; conditions: chlorocebus sabaeus
Rift Valley fever virus = experiment: Antiviral activity against Rift Valley fever virus MP-12 infected in African green monkey Vero 76 cells; format: functional, organism-based
[3] = tested on: Venezuelan equine encephalitis virus; experiment: Antiviral activity against Venezuelan equine encephalitis virus TC-83 infected in African green monkey Vero cells; format: functional, organism-based
Vero = experiment: Cytotoxicity against African green monkey Vero cells assessed as reduction in cell viability; format: cell-based; conditions: chlorocebus sabaeus
Influenza A virus = experiment: Antiviral activity against Influenza A virus (A/California/07/2009(H1N1)) infected in MDCK cells; format: functional, organism-based
MDCK = experiment: Cytotoxicity against MDCK cells assessed as reduction in cell viability; format: cell-based, Canis lupus familiaris; conditions: dog
West Nile virus = experiment: Antiviral activity against West Nile virus KERN 515/WN02 infected in MDCK cells; format: functional, organism-based
Human betaherpesvirus 5 = experiment: Antiviral activity against Human cytomegalovirus AD169 infected in HFF; format: functional, organism-based; conditions: Human betaherpesvirus 5, AD169, HFF
[4] = Cytotoxicity against HFF assessed as reduction in cell viability; format: cell-based; conditions: human, HFF cells

SMILES	pEC50 (Hepatitis B virus)	CC50 [1]	Activity (Poliovirus 1)	Activity (LLC-MK2)	Activity (SARS-CoV)	Activity (Vero C1008)	Activity (Human orthopneumovirus)	Activity (HEp-2)	Activity (Hepatitis C virus)	Activity [2]	Activity (Human alphaherpesvirus 1)	Activity (Human alphaherpesvirus 2)	Activity (Vaccinia virus)	Activity (dengue virus type 2)	Activity (Vero 76)	Activity (Rift Valley fever virus)	Activity [3]	Activity (Vero)	Activity (Influenza A virus)	Activity (MDCK)	other results
Nc1ncnc2c1ncn2[C@@H]1C[C@H]([C@H](O)CO)[C@@H](O)[C@H]1O	5.15	> 100 µM	inactive	Non-Toxic	inactive	Non-Toxic	inactive	Non-Toxic	inactive	Non-Toxic	inactive	inactive	inactive	inactive	Non-Toxic	inactive	inactive	Non-Toxic	inactive	Non-Toxic	Activity (Yellow fever virus): inactive; Activity (West Nile virus): inactive
Nc1ncnc2c1ncn2[C@@H]1C[C@H]([C@@H](O)CO)[C@@H](O)[C@H]1O	5.13	> 100 µM	inactive	Non-Toxic	inactive	Non-Toxic	inactive	Non-Toxic	inactive	Non-Toxic	inactive	inactive	inactive	inactive	Non-Toxic	inactive	inactive	Non-Toxic	inactive	Non-Toxic	pEC50 (Human betaherpesvirus 5): 6.14; CC50 [4]: > 300 µM; Activity (West Nile virus): inactive
